Laboratory results taken from ChEMBL document CHEMBL1127889 (Bioorg Med Chem Lett, 1994).

Assays:
[1] = molecular target: T1, Endothelin-converting enzyme 1 (Bos taurus, UniProt P42891); test: Inhibition of Endothelin-converting enzyme (ECE) from microsomal fractions of bovine cultured endothelial cells; type: cell-based, Endothelial cell
T1 sequence (P42891 whole entry): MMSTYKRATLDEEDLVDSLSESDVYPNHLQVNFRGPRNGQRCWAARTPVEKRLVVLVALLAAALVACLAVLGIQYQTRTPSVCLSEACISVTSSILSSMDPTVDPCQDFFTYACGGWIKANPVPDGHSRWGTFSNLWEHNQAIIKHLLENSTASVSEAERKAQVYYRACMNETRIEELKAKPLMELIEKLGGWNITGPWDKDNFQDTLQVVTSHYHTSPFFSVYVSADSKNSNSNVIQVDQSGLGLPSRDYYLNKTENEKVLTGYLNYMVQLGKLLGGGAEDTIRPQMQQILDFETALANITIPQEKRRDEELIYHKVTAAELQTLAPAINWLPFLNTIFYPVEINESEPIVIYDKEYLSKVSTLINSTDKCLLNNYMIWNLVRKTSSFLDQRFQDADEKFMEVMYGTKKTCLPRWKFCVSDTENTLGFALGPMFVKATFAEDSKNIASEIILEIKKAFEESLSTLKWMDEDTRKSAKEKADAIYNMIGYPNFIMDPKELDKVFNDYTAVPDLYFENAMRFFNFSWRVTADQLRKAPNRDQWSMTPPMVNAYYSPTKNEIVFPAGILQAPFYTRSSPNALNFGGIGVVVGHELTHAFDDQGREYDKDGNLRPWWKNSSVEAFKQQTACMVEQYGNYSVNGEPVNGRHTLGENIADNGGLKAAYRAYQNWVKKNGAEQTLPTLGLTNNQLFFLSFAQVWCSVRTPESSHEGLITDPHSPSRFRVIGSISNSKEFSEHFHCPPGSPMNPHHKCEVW

[2] = molecular target: T2, Endothelin-converting enzyme 1 (Bos taurus) (UniProt P42891); test: Inhibitory activity against Endothelin-converting enzyme (ECE) prepared from the microsomal fractions of bovine cultured endothelial cells at a concentration of 100 uM; type: cell-based; settings: Endothelial cell
T2 sequence (whole entry): T1 sequence (P42891 whole entry)

[3] = molecular target: T3, Neprilysin (Rattus norvegicus, UniProt P07861); test: Inhibitory activity against neutral endopeptidase (NEP)prepared from microsomal fractions of rat small intestine
T3 sequence (P07861 whole entry): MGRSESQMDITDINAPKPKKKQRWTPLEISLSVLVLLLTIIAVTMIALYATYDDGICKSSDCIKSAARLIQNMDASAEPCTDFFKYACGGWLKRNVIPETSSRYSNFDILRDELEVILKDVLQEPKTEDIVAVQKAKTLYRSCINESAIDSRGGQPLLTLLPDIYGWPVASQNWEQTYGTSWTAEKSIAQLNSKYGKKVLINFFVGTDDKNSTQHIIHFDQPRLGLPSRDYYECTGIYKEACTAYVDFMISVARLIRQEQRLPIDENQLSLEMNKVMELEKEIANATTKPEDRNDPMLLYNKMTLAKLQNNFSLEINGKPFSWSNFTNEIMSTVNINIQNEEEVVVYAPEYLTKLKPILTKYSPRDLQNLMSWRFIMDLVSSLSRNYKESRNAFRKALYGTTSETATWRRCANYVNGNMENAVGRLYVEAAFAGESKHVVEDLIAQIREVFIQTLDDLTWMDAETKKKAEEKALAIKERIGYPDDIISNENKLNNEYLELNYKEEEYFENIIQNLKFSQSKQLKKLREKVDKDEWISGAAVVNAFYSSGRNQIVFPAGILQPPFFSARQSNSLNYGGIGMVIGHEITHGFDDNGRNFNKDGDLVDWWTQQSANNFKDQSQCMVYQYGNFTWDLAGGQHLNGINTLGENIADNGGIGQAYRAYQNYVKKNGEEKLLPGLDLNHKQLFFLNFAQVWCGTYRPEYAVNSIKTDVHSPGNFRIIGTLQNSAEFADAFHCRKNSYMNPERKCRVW

[4] = Selectivity ratio against ECE/NEP
[5] = molecular target: T2, Endothelin-converting enzyme 1 (Bos taurus); test: Inhibitory activity against Endothelin converting enzyme (ECE) prepared from the microsomal fractions of bovine cultured endothelial cells at a concentration of 100 uM; type: cell-based; settings: Endothelial cell

| IC50 [1] | inhibition [2] | IC50 [3] | Ratio [4] | inhibition [5] | SMILES |
| --- | --- | --- | --- | --- | --- |
| 7100 nM | 38% | 1100 nM | 150 |  | CC(C)C[C@H](NC(CCCc1ccccc1)P(=O)(O)O)C(=O)N[C@@H](Cc1c[nH]c2ccccc12)C(=O)O (stereo partly specified) |
| 1500 nM |  |  |  |  | CCCC[C@H](NP(=O)(O)O)C(=O)N[C@@H](Cc1c[nH]c2ccccc12)C(=O)O |
| 960 nM |  |  |  |  | CC(C)C[C@H](NP(=O)(O)O)C(=O)N[C@@H](Cc1c[nH]c2ccccc12)C(=O)O |
| 1100 nM | 33% | 130 nM | 120 |  | CC(C)C[C@H](NC(CCc1ccccc1)P(=O)(O)O)C(=O)N[C@@H](Cc1c[nH]c2ccccc12)C(=O)O (stereo partly specified) |
| 7400 nM |  |  |  |  | CC(C)C[C@H](NP(=O)(O)O)C(=O)N[C@@H](Cc1cccc2ccccc12)C(=O)O |
| 260 nM |  | 140 nM | 540 | 31% | CC(C)C[C@H](NC(CCc1cccc2ccccc12)P(=O)(O)O)C(=O)N[C@@H](Cc1c[nH]c2ccccc12)C(=O)O (stereo partly specified) |
| 3000 nM | 42% | 130 nM | 43 |  | CC(C)C[C@H](NC(CCc1ccc(O)cc1)P(=O)(O)O)C(=O)N[C@@H](Cc1c[nH]c2ccccc12)C(=O)O (stereo partly specified) |
| 1900 nM |  | 560 nM | 290 |  | CC(C)C[C@H](NC(CCc1c[nH]c2ccccc12)P(=O)(O)O)C(=O)N[C@@H](Cc1c[nH]c2ccccc12)C(=O)O (stereo partly specified) |
| 2800 nM |  |  |  |  | CC[C@@H](C)[C@H](NP(=O)(O)O)C(=O)N[C@@H](Cc1c[nH]c2ccccc12)C(=O)O |

| SMILES | IC50 [1] | inhibition [2] | IC50 [3] | Ratio [4] | inhibition [5] |
| --- | --- | --- | --- | --- | --- |
| CC(C)C[C@H](NCP(=O)(O)O)C(=O)N[C@@H](Cc1c[nH]c2ccccc12)C(=O)O | 3400 nM |  | 24 nM | 7.1 |  |
| CC(C)[C@H](NP(=O)(O)O)C(=O)N[C@@H](CC(N)=O)C(=O)O |  | 14% |  |  |  |
| CCCC(N[C@@H](CC(C)C)C(=O)N[C@@H](Cc1c[nH]c2ccccc12)C(=O)O)P(=O)(O)O (stereo partly specified) | 15000 nM |  | 550 nM | 37 |  |
| CC(C)C[C@H](NP(=O)(O)OC1O[C@@H](C)[C@H](O)[C@@H](O)[C@H]1O)C(=O)N[C@@H](Cc1c[nH]c2ccccc12)C(=O)O (single isomer, unassigned) [PHOSPHORAMIDON] |  |  | 4.2 nM |  |  |
